Assay results published in publication PMC8771711, “Synthesis of Lasalocid-Based Bioconjugates and Evaluation of Their Anticancer Activity” (ACS Omega, 2022).

Tests used:
[1] = test system: PC3, human prostate cancer cell line; test: MTT assay, cytotoxicity in PC3; type: cell-based; settings: for IC50: Homo sapiens, MTT, 72 h, mean ± SD; for PC3 SI (selectivity index): SI = IC50 HaCaT / IC50 PC3
Method: (§1) The human cell lines SW480 (primary colon cancer), SW620 (lymph node metastatic colon cancer from the same patient as primary cancer cells), PC3 (metastatic prostate cancer), and HaCaT (immortalized keratinocytes) were obtained from the American Type Culture Collection (ATCC, Rockville, USA). The SW480 and SW620 cells were grown in MEM (ThermoSci, USA), PC3 in RPMI 1640, and HaCaT in DMEM High Glucose (Biowest SAS, France) supplemented with 10% foetal bovine serum (FBS), HEPES (20 mM), and antibiotics (100 U mL^–1 of penicillin and 100 μg mL^–1 of streptomycin). The cells were incubated in a humidified incubator at 37 °C/5% CO2, until 80–90% confluence was reached.
(§2) The cell viability was assessed by using of MTT salt [3-(4,5-dimethylthiazol-2-yl)-2,5-diphenyltetrazolium bromide] converted by mitochondrial dehydrogenase, occurring in living cells. The cells were seeded in 96-well plates at a density of 1 × 10^4 cells per well and allowed to adhere for 24 h at 37 °C in a CO2 humidified incubator. Then, the medium was removed and a fresh medium with various concentrations of tested compounds (from 10 to 120 μM) was added. The untreated cells were used as the control.
(§3) After 72 h incubation, the medium was replaced with 200 μL per well of free serum medium containing 0.5 mg mL^–1 MTT and incubated for 4 h at 37 °C in a CO2 humidified incubator. Subsequently, the medium was removed and dimethyl sulfoxide with isopropanol (1:1) was added to dissolve the formazan crystals. The optical density was measured using a UVM 340 reader (ASYS Hitech GmbH, Austria) at a wavelength of 570 nm. The experiments were repeated three times. The cell viability was calculated as the percent of MTT reduced in treated cells versus control cells (untreated cells). The number of viable cells cultured without tested compounds was assumed as 100%. The decreased relative MTT level indicates decreased cell viability. The IC50 values were estimated using CompuSyn version 1.0.

[2] = test system: IL-6 in PC3 cells; test: Interleukin-6 assay (ELISA) in PC3; type: cell-based, human; settings: IC50 concentration, 72 h, ELISA of culture supernatant, p ≤ 0.001
Method: (§4) The level of interleukin-6 (IL-6) in SW480, SW620, and PC3 cell lines was measured by commercial human IL-6 ELISA kits Diaclon SAS (Besancon Cedex, France). […] The untreated cells were used as the control. The IL-6 level in a cell culture supernatant was measured using an enzyme-linked immunosorbent assay, in accordance with the manufacturer’s instruction. The experiment was repeated three times.

[3] = test system: SW620, human metastatic colon cancer cell line; test: MTT assay, cytotoxicity in SW620; type: cell-based; settings: for IC50: Homo sapiens, SW-620, MTT, 72 h, mean ± SD; for SW620 SI (selectivity index): SI = IC50 HaCaT / IC50 SW620
Method: as §1, §2, §3

[4] = test system: SW480 cells; test: Annexin V-FITC/PI binding assay (flow cytometry) in SW480; type: cell-based, human; settings: IC50 concentration, 72 h
Method: (§5) The SW480, SW620, PC3, and HaCaT cells were cultured and harvested under the conditions mentioned in the Section 4.5 and seeded in 12-well plates (1 × 10^5 cells per well). […] The apoptotic effect was performed using the Annexin V-FITC/propidium iodide (PI) apoptosis assay kit (Becton Dickinson, Pharmingen), according to the manufacturer’s instructions, and analyzed by flow cytometry (Becton Dickinson). The cells which were Annexin V-FITC-positive and PI-negative were identified as early apoptotic and both Annexin V-FITC- and PI-positive as late apoptotic or necrotic. The experiment was repeated three times.

[5] = test system: SW480, human primary colon cancer cell line; test: MTT assay, cytotoxicity in SW480; type: cell-based; settings: for IC50: Homo sapiens, SW480, MTT, 72 h, mean ± SD; for SW480 SI (selectivity index): SI = IC50 HaCaT / IC50 SW480
Method: as §1, §2, §3

[6] = test system: HaCaT, human immortalized keratinocyte cell line; test: MTT assay, cytotoxicity in HaCaT; type: cell-based; settings: Homo sapiens, HaCaT, 72 h, mean ± SD, nontumor cells
Method: as §1, §2, §3

[7] = test system: PC3 cells; test: Annexin V-FITC/PI binding assay (flow cytometry) in PC3; type: cell-based, human; settings: IC50 concentration, 72 h
Method: as §5

[8] = test system: ROS production in HaCaT cells; test: ROS detection, DCFH-DA and DHR-123 assay, HaCaT; type: cell-based, human; settings: IC50 concentration; for ROS level in HaCaT cells (in words): DCF and rhodamine fluorescence intensity; for time of treatment at which the amount of ROS in HaCaT cells was highest: measured after 1, 4, 12, 24 h
Method: (§6) ROS generation was assessed by the spectrofluorometric method using the 2′,7′-dichlorodihydrofluorescein diacetate (DCFH-DA) or dihydrorhodamine 123 (DHR-123). The method is based on the ROS-dependent oxidation of the compounds to fluorescent dichlorofluorescein (DCF) or rhodamine-123, respectively.[61] PC3, SW480, SW620, and HaCaT were seeded on to 96-well plates (5 × 10^4 cells per well) and allowed to adhere for 24 h. Then, cells were rinsed with PBS and incubated with DCFH-DA (5 μM) or DHR-123 (1 μM) for 30 min at 37 °C in the dark. […] A sample with H2O2 (1.5 mM) was a positive control, and a sample without any reagent was a negative control. Maximum excitation and emission spectra for DCF were 492 and 527 nm, and those for rhodamine-123 were 500 and 536 nm, respectively. The generation of H2O2 was measured by Microplate Spectrofluorometer BioTek Synergy (BioTek Instruments, USA) and expressed as fluorescence intensity (FI). Values from three experiments performed in triplicate were analyzed.

[9] = test system: IL-6 in SW620 cells; test: Interleukin-6 assay (ELISA) in SW620; type: cell-based, human; settings: IC50 concentration, 72 h, ELISA of culture supernatant
Method: as §4

[10] = test system: SW620 cells; test: Annexin V-FITC/PI binding assay (flow cytometry) in SW620; type: cell-based, human; settings: IC50 concentration, 72 h
Method: as §5

[11] = test system: HaCaT cells; test: Annexin V-FITC/PI binding assay (flow cytometry) in HaCaT; type: cell-based, human; settings: IC50 concentration, 72 h; span stated for compounds 12 and 13 together
Method: as §5

[12] = test system: ROS production in PC3, SW480, SW620 cells; test: ROS detection, DCFH-DA and DHR-123 assay, cancer cell lines; type: cell-based, human; settings: IC50 concentration; DCF and rhodamine fluorescence intensity
Method: as §6

[13] = test system: IL-6 in SW480 cells; test: Interleukin-6 assay (ELISA) in SW480; type: cell-based, human; settings: IC50 concentration, 72 h, ELISA of culture supernatant
Method: as §4

[14] = test system: three cancer cell lines (SW480, SW620, PC3); test: MTT assay, span over the three cancer cell lines; type: cell-based, human
Method: as §1, §2, §3

Compound	IC50 [1]	PC3 SI (selectivity index) [1]	IC50 [3]	SW620 SI (selectivity index) [3]	percentage of necrotic SW480 cells [4]	IC50 [5]	SW480 SI (selectivity index) [5]	IC50 [6]	percentage of late apoptotic PC3 cells [7]	percentage of necrotic PC3 cells [7]	ROS level in HaCaT cells (in words) [8]	time of treatment at which the amount of ROS in HaCaT cells was highest [8]	late apoptosis in HaCaT cells [11]	ROS level in cancer cell lines (in words) [12]	further results
CC[C@@H](C(=O)[C@@H](C)[C@@H](O)[C@H](C)CCc1ccc(C)c(O)c1C(=O)OCc1cc(=O)c(O)co1)[C@H]1O[C@](CC)([C@H]2CC[C@](O)(CC)[C@H](C)O2)C[C@@H]1C [Compound 7, LAS–Kojic Acid Conjugate]	3.8 ± 0.07 µM	1.7	9.9 ± 0.08 µM	0.6	22.39%	7.8 ± 0.09 µM	0.8	6.3 ± 0.1 µM	28.24%	26.00%					inhibition of IL-6 release in PC3 cells, fold more effectively compared to control [2]: ~1.2 fold
CC[C@@H](C(=O)[C@@H](C)[C@@H](O)[C@H](C)CCc1ccc(C)c(O)c1C(=O)OC[C@H]1O[C@@H](n2ccc(N)nc2=O)C(F)(F)[C@@H]1O)[C@H]1O[C@](CC)([C@H]2CC[C@](O)(CC)[C@H](C)O2)C[C@@H]1C [Compound 12, LAS–Gemcitabine Conjugate]	1.6 ± 1.2 µM	8.8	3.6 ± 1.1 µM	3.9	42.85%	12 ± 0.86 µM	1.2	14 ± 0.22 µM	39.92%	40.31%	slightly elevated level of ROS	4 h	57.26 to 72.01%	significantly higher level of ROS	decrease of IL-6 concentration in SW620 cells compared to the control [9]: ~1.3 time; early apoptosis in SW620 cells [10]: 14.53%; late apoptosis in SW620 cells [10]: 14.79%; decrease of IL-6 concentration in SW480 cells compared to the control [13]: ~1.0 time
CC[C@@H](C(=O)[C@@H](C)[C@@H](O)[C@H](C)CCc1ccc(C)c(O)c1C(=O)OCCC[P+](c1ccccc1)(c1ccccc1)c1ccccc1)[C@H]1O[C@](CC)([C@H]2CC[C@](O)(CC)[C@H](C)O2)C[C@@H]1C [Compound 13, LAS–TPP Conjugate]	1.8 ± 0.09 µM	1.8	2.3 ± 2.2 µM	1.4	24.82%	1.4 ± 1.5 µM	2.3	3.2 ± 0.12 µM		56.81%	significantly higher level of ROS	12 h	57.26 to 72.01%	significantly higher level of ROS	percentage of late apoptotic SW480 cells [4]: 20.15%
CC[C@@H](C(=O)[C@@H](C)[C@@H](O)[C@H](C)CCc1ccc(C)c(O)c1C(=O)O)[C@H]1O[C@](CC)([C@H]2CC[C@](O)(CC)[C@H](C)O2)C[C@@H]1C [LAS, lasalocid]	1.4 ± 0.05 µM	11	6.1 ± 0.28 µM	2.6		7.2 ± 0.79 µM	2.2	16 ± 1.9 µM							IC50 ([14]; Homo sapiens, MTT, 72 h): 1.4 to 7.2 µM; SI, span over three cancer cell lines ([14]; SI = IC50 HaCaT / IC50 cancer cell line): 2.2–11
